# Experimental data published in patent publication US20160015803A1, “IMMUNOSTIMULATORY COMBINATIONS AND USE THEREOF” (priority 2014, published 2016).
# Test system: markers of innate activation
# Assay: in vivo activity, markers of innate activation after IV injection
# Settings: Rhesus; 24-72 hours after IV injection
# From the text: Based on these findings in mice we explored the potential for the use of polyIC-LC/αCD40 combination vaccination in non-human primates (NHP) in order to validate the clinical efficacy. Human anti-human CD40 (Kirin Pharmaceuticals) having the variable heavy and light sequences in the Sequence Listing were produced in cell culture. CD40 binding activity and agonistic activity was confirmed against both human and Rhesus Macaque PBMCs. In vivo activity in Rhesus was also confirmed by examining markers of innate activation 24-72 hours after IV antibody injection. PolyIC-LC was obtained from Oncovir Inc. and its activity was confirmed in vivo similar to the αCD40.
substance,measurement,value
PolyIC-LC,In vivo activity (markers of innate activation),confirmed
